# Biological target: Coagulation factor X (Homo sapiens, UniProt P00742)
# Test: Compound was tested for inhibition activity against Coagulation factor X
# Coagulation factor X, sequence (P00742 41-179 limits assumed): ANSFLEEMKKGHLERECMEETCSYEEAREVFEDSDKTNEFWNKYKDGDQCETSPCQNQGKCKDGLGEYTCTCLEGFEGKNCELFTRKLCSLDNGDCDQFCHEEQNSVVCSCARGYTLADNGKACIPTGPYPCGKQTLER
# Coagulation factor X, sequence (P00742 235-488 limits assumed): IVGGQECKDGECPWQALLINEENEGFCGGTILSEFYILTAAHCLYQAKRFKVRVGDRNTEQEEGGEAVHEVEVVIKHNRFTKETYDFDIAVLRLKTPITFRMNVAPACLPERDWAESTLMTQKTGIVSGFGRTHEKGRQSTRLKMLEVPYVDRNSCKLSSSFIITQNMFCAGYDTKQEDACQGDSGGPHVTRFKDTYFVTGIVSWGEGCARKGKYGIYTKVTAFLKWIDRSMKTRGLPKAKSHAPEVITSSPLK
row,Ki [µM],SMILES
1,0.095,N=C(N)c1cccc(Oc2ccc(C(=O)O)c(Oc3cccc(C(=N)N)c3)n2)c1
2,0.11,N=C(N)c1cccc(Oc2ccc(C(F)(F)F)c(Oc3cccc(C(=N)N)c3)n2)c1
3,0.032,CN(C)C(=O)c1ccc(Oc2cccc(C(=N)N)c2)nc1Oc1cccc(C(=N)N)c1
4,0.3,N=C(N)c1cccc(Oc2cc(Oc3ccccc3C(=N)N)ccc2[N+](=O)[O-])c1
5,0.19,CCOC(=O)c1ccc(Oc2cccc(C(=N)N)c2)nc1Oc1cccc(C(=N)N)c1
6,0.69,N=C(N)c1cccc(Oc2ccc(C(=O)NCC(N)=O)c(Oc3cccc(C(=N)N)c3)n2)c1
7,0.13,CS(=O)(=O)Nc1ccc(Oc2cccc(C(=N)N)c2)nc1Oc1cccc(C(=N)N)c1
8,0.053,N=C(N)c1cccc(Oc2ccc(N)c(Oc3cccc(C(=N)N)c3)n2)c1
9,0.66,Cc1c(F)c(Nc2cccc(C(=N)N)c2)nc(Oc2cccc(C(=N)N)c2)c1F
10,1.1,N=C(N)c1ccc(Oc2cc(Oc3ccc(C(=N)N)cc3)c(Cl)cc2Cl)cc1
11,0.042,N=C(N)c1cccc(Oc2cc(C(N)=O)cc(Oc3cccc(C(=N)N)c3)n2)c1
12,0.6,N=C(N)c1cccc(Oc2ccc(C(N)=O)c(Oc3cccc(C(=N)N)c3)n2)c1
13,0.051,N=C(N)c1cccc(Oc2cncc(Oc3cccc(C(=N)N)c3)n2)c1
14,0.97,N=C(N)c1ccc(Oc2cccc(Oc3ccc(C(=N)N)cc3)c2)cc1
15,0.12,N=C(N)c1cccc(Oc2ccc(NC(=O)c3ccccc3)c(Oc3cccc(C(=N)N)c3)n2)c1
16,0.13,N=C(N)c1ccc(Oc2cccc(Oc3ccccc3C(=N)N)n2)cc1

row,Ki [µM],SMILES
1,1.1,N=C(N)c1cccc(Oc2cc(Oc3ccccc3C(=N)N)ccc2N)c1
2,0.059,CNC(=O)Nc1ccc(Oc2cccc(C(=N)N)c2)nc1Oc1cccc(C(=N)N)c1
3,0.098,Cc1c(F)c(N(C)c2cccc(C(=N)N)c2)nc(N(C)c2cccc(C(=N)N)c2)c1F
4,0.06,CNC(=O)c1cc(Oc2cccc(C(=N)N)c2)nc(Oc2cccc(C(=N)N)c2)c1
5,0.034,CCOC(=O)c1cc(Oc2cccc(C(=N)N)c2)nc(Oc2cccc(C(=N)N)c2)c1
6,0.23,CNC(=O)c1ccc(Oc2cccc(C(=N)N)c2)nc1Oc1cccc(C(=N)N)c1
7,0.012,Cc1c(F)c(Oc2cccc(C(=N)N)c2)nc(N(C)c2cccc(C(=N)N)c2)c1F
8,0.023,COc1c(F)c(Oc2cccc(C(=N)N)c2)nc(Oc2cccc(C(=N)N)c2)c1F
9,0.052,CC(=O)Nc1ccc(Oc2cccc(C(=N)N)c2)nc1Oc1cccc(C(=N)N)c1
10,> 5,N=C(N)c1ccccc1Oc1cccc(Oc2ccccc2C(=N)N)n1
11,0.11,N=C(N)c1cccc(Oc2ccc(NC(=O)NCC(N)=O)c(Oc3cccc(C(=N)N)c3)n2)c1
12,0.00066,N=C(N)c1ccc(/C=C2\CCCC/C(=C\c3ccc(C(=N)N)cc3)C2=O)cc1
13,0.062,N=C(N)c1cccc(Oc2ccc(NC(=O)Nc3ccccc3)c(Oc3cccc(C(=N)N)c3)n2)c1
14,0.19,N=C(N)c1cccc(Oc2c[nH]c(=O)c(Oc3cccc(C(=N)N)c3)n2)c1
15,0.12,N=C(N)c1cccc(Oc2ccnc(Oc3cccc(C(=N)N)c3)n2)c1

# Biological target: T1, Serine protease 1 (Bos taurus, UniProt P00760)
# T1 sequence (P00760 whole entry): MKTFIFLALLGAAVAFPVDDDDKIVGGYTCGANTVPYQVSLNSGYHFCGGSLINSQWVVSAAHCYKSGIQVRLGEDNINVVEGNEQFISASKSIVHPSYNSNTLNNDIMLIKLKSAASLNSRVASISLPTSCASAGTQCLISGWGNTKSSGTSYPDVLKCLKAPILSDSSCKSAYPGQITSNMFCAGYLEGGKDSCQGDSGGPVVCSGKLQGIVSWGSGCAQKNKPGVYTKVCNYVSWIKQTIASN
# Test: Compound was tested for inhibition activity against bovine trypsin.
row,Ki [µM],SMILES
1,2.2,N=C(N)c1cccc(Oc2ccc(C(=O)O)c(Oc3cccc(C(=N)N)c3)n2)c1
2,0.78,N=C(N)c1cccc(Oc2ccc(C(F)(F)F)c(Oc3cccc(C(=N)N)c3)n2)c1
3,0.78,CN(C)C(=O)c1ccc(Oc2cccc(C(=N)N)c2)nc1Oc1cccc(C(=N)N)c1
4,0.92,CCOC(=O)c1ccc(Oc2cccc(C(=N)N)c2)nc1Oc1cccc(C(=N)N)c1
5,2,N=C(N)c1cccc(Oc2ccc(C(=O)NCC(N)=O)c(Oc3cccc(C(=N)N)c3)n2)c1
6,1.9,CS(=O)(=O)Nc1ccc(Oc2cccc(C(=N)N)c2)nc1Oc1cccc(C(=N)N)c1
7,1.3,N=C(N)c1cccc(Oc2ccc(N)c(Oc3cccc(C(=N)N)c3)n2)c1
8,3.1,Cc1c(F)c(Nc2cccc(C(=N)N)c2)nc(Oc2cccc(C(=N)N)c2)c1F
9,1.8,N=C(N)c1ccc(Oc2cc(Oc3ccc(C(=N)N)cc3)c(Cl)cc2Cl)cc1
10,0.78,N=C(N)c1cccc(Oc2cc(C(N)=O)cc(Oc3cccc(C(=N)N)c3)n2)c1
11,1.2,N=C(N)c1cccc(Oc2ccc(C(N)=O)c(Oc3cccc(C(=N)N)c3)n2)c1
12,0.97,N=C(N)c1cccc(Oc2cncc(Oc3cccc(C(=N)N)c3)n2)c1
13,1,N=C(N)c1ccc(Oc2cccc(Oc3ccc(C(=N)N)cc3)c2)cc1
14,0.26,N=C(N)c1cccc(Oc2ccc(NC(=O)c3ccccc3)c(Oc3cccc(C(=N)N)c3)n2)c1
15,1.9,N=C(N)c1ccc(Oc2cccc(Oc3ccccc3C(=N)N)n2)cc1
16,0.84,CNC(=O)Nc1ccc(Oc2cccc(C(=N)N)c2)nc1Oc1cccc(C(=N)N)c1
17,0.36,Cc1c(F)c(N(C)c2cccc(C(=N)N)c2)nc(N(C)c2cccc(C(=N)N)c2)c1F
18,0.75,CNC(=O)c1cc(Oc2cccc(C(=N)N)c2)nc(Oc2cccc(C(=N)N)c2)c1
19,0.8,CCOC(=O)c1cc(Oc2cccc(C(=N)N)c2)nc(Oc2cccc(C(=N)N)c2)c1
20,1.4,CNC(=O)c1ccc(Oc2cccc(C(=N)N)c2)nc1Oc1cccc(C(=N)N)c1
21,0.69,Cc1c(F)c(Oc2cccc(C(=N)N)c2)nc(N(C)c2cccc(C(=N)N)c2)c1F
22,1.1,COc1c(F)c(Oc2cccc(C(=N)N)c2)nc(Oc2cccc(C(=N)N)c2)c1F
23,1.2,CC(=O)Nc1ccc(Oc2cccc(C(=N)N)c2)nc1Oc1cccc(C(=N)N)c1
24,0.28,N=C(N)c1cccc(Oc2ccc(NC(=O)NCC(N)=O)c(Oc3cccc(C(=N)N)c3)n2)c1
25,0.033,N=C(N)c1ccc(/C=C2\CCCC/C(=C\c3ccc(C(=N)N)cc3)C2=O)cc1
26,0.1,N=C(N)c1cccc(Oc2ccc(NC(=O)Nc3ccccc3)c(Oc3cccc(C(=N)N)c3)n2)c1
27,0.76,N=C(N)c1cccc(Oc2c[nH]c(=O)c(Oc3cccc(C(=N)N)c3)n2)c1
28,0.76,N=C(N)c1cccc(Oc2ccnc(Oc3cccc(C(=N)N)c3)n2)c1

# Biological target: Prothrombin (Homo sapiens, UniProt P00734)
# Test: Compound was tested for inhibition activity against human thrombin (FIIa)
row,Ki [µM],SMILES
1,> 100,N=C(N)c1cccc(Oc2ccc(C(=O)O)c(Oc3cccc(C(=N)N)c3)n2)c1
2,> 5,N=C(N)c1cccc(Oc2ccc(C(F)(F)F)c(Oc3cccc(C(=N)N)c3)n2)c1
3,> 5,CN(C)C(=O)c1ccc(Oc2cccc(C(=N)N)c2)nc1Oc1cccc(C(=N)N)c1
4,> 5,CCOC(=O)c1ccc(Oc2cccc(C(=N)N)c2)nc1Oc1cccc(C(=N)N)c1
5,> 5,N=C(N)c1cccc(Oc2ccc(C(=O)NCC(N)=O)c(Oc3cccc(C(=N)N)c3)n2)c1
6,> 5,CS(=O)(=O)Nc1ccc(Oc2cccc(C(=N)N)c2)nc1Oc1cccc(C(=N)N)c1
7,> 5,N=C(N)c1cccc(Oc2ccc(N)c(Oc3cccc(C(=N)N)c3)n2)c1
8,> 5,Cc1c(F)c(Nc2cccc(C(=N)N)c2)nc(Oc2cccc(C(=N)N)c2)c1F
9,2.5,N=C(N)c1ccc(Oc2cc(Oc3ccc(C(=N)N)cc3)c(Cl)cc2Cl)cc1
10,6,N=C(N)c1cccc(Oc2cc(C(N)=O)cc(Oc3cccc(C(=N)N)c3)n2)c1
11,> 5,N=C(N)c1cccc(Oc2ccc(C(N)=O)c(Oc3cccc(C(=N)N)c3)n2)c1
12,> 5,N=C(N)c1cccc(Oc2cncc(Oc3cccc(C(=N)N)c3)n2)c1
13,4.9,N=C(N)c1ccc(Oc2cccc(Oc3ccc(C(=N)N)cc3)c2)cc1
14,3.4,N=C(N)c1cccc(Oc2ccc(NC(=O)c3ccccc3)c(Oc3cccc(C(=N)N)c3)n2)c1
15,1.2,N=C(N)c1ccc(Oc2cccc(Oc3ccccc3C(=N)N)n2)cc1
16,> 5,CNC(=O)Nc1ccc(Oc2cccc(C(=N)N)c2)nc1Oc1cccc(C(=N)N)c1
17,0.36,Cc1c(F)c(N(C)c2cccc(C(=N)N)c2)nc(N(C)c2cccc(C(=N)N)c2)c1F
18,4.2,CNC(=O)c1cc(Oc2cccc(C(=N)N)c2)nc(Oc2cccc(C(=N)N)c2)c1
19,11,CCOC(=O)c1cc(Oc2cccc(C(=N)N)c2)nc(Oc2cccc(C(=N)N)c2)c1
20,> 5,CNC(=O)c1ccc(Oc2cccc(C(=N)N)c2)nc1Oc1cccc(C(=N)N)c1
21,1.9,Cc1c(F)c(Oc2cccc(C(=N)N)c2)nc(N(C)c2cccc(C(=N)N)c2)c1F
22,> 5,COc1c(F)c(Oc2cccc(C(=N)N)c2)nc(Oc2cccc(C(=N)N)c2)c1F
23,> 5,CC(=O)Nc1ccc(Oc2cccc(C(=N)N)c2)nc1Oc1cccc(C(=N)N)c1
24,> 5,N=C(N)c1cccc(Oc2ccc(NC(=O)NCC(N)=O)c(Oc3cccc(C(=N)N)c3)n2)c1
25,0.53,N=C(N)c1ccc(/C=C2\CCCC/C(=C\c3ccc(C(=N)N)cc3)C2=O)cc1
26,3.4,N=C(N)c1cccc(Oc2ccc(NC(=O)Nc3ccccc3)c(Oc3cccc(C(=N)N)c3)n2)c1
27,> 5,N=C(N)c1cccc(Oc2c[nH]c(=O)c(Oc3cccc(C(=N)N)c3)n2)c1
28,> 5,N=C(N)c1cccc(Oc2ccnc(Oc3cccc(C(=N)N)c3)n2)c1

# — ChEMBL document CHEMBL1132209, “Design, synthesis, and activity of 2,6-diphenoxypyridine-derived factor Xa inhibitors” (J Med Chem, 1999)
